Measurements as given in patent publication US20180110824A1, “Macrocyclic Modulators of the Ghrelin Receptor” (Ocera Therapeutics, Inc., priority 2016, published 2018).

target: T1, human growth hormone secretagogue receptor (hGHS-R1a) (Homo sapiens, UniProt Q92847); test: Competitive radioligand binding assay (ghrelin receptor), [125I]-ghrelin displacement on GHS-R/HEK 293 membranes; conditions: Binding activity at the human ghrelin receptor, [125I]-ghrelin displacement; read-out: Ki
T1 construct: purchased PerkinElmer BioSignal #RBHGHSM; host or cells: HEK-293, stably transfected
T1 sequence (Q92847 whole entry): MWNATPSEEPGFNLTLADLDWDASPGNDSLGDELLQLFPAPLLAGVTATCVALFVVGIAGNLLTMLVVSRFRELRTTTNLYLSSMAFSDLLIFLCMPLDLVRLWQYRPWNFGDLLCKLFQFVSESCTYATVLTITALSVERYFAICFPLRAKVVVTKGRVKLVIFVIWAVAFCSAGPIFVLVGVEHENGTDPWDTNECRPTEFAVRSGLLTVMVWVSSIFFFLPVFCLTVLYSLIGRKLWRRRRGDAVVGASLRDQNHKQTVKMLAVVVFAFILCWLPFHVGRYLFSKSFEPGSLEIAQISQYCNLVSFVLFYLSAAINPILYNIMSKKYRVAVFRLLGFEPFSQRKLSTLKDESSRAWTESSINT
Procedure: The competitive binding assay at the human growth hormone secretagogue receptor (hGHS-R1a) was carried out analogously to assays described in the literature.
Multiscreen Harvest plates-GF/C (Millipore, #MAHFC1H60) • 4. […] Bottom seal (Millipore, #MATAH0P00) • 7. […] Binding Buffer: 25 mM Hepes (pH 7.4), 1 mM CaCl2, 5 mM MgCl2, 2.5 mM EDTA, 0.4% BSA
Competition experiments were performed in a 300 μl filtration assay format. • 1. 220 μL of membranes diluted in binding buffer • 2. 40 μL of compound diluted in binding buffer • 3.
Compounds were provided frozen on dry ice at a stock concentration of 10 mM diluted in 100% DMSO and stored at −80° C. until the day of testing. On the test day, compounds were allowed to thaw at rt O/N and then diluted in assay buffer according to the desired test concentrations. Under these conditions, the maximal final DMSO concentration in the assay was 0.1%.
Plates were sealed with TopSeal-A, vortexed gently and incubated at rt for 30 min. The reaction was arrested by filtering samples through Multiscreen Harvest plates (pre-soaked in 0.5% polyethyleneimine) using a Tomtec Harvester, washed 9 times with 500 μL of cold 50 mM Tris-HCl (pH 7.4, 4° C.), and then plates were air-dried in a fumehood 30 min. A bottom seal was applied to the plates prior to the addition of 25 μL of MicroScint-0 to each well. […] Results were expressed as counts per minute (cpm).
Data were analyzed by GraphPad Prism (GraphPad Software, San Diego, Calif.) using […] non-linear regression analysis.
where total and non-specific binding represent the cpm obtained in the absence or presence of 1 μM ghrelin, respectively.
• 1. Binding performed on membranes prepared from HEK293 expressing the transfected, cloned human ghrelin receptor (hGHS-R1a). • 2. […] Ghrelin (unlabeled, 1 μM) was used to determine non-specific binding. • 4.

Ki [nM] | Structure (SMILES)
10 to 100 | CC(C)C[C@@H]1NCCOc2ccccc2/C=C/CNC(=O)[C@H](Cc2cccc3ccccc23)NC(=O)C2(CCCC2)NC1=O [compound 22]
100 to 1000 | CC[C@H](C)[C@@H]1NCCOc2ccccc2CCCNC(=O)[C@@H](Cc2cscn2)NC(=O)[C@@H](C)N(C)C1=O [compound 33]
> 10000 | CC(C)C[C@@H]1NCCOCCNC(=O)[C@H](Cc2ccccc2)NC(=O)C2(CCCC2)NC1=O [compound 44]
> 10000 | CCC[C@@H]1NC(=O)C2(CCCC2)NC(=O)[C@H](CC(C)C)NCCOc2ccccc2/C=C/CNC1=O [compound 48]
> 10000 | CCC[C@@H]1NCCOc2ccccc2CCCNC(=O)[C@@H](C)NC(=O)CN(C)C1=O [compound 49]
> 10000 | CCC[C@@H]1NCCOc2ccccc2CCCNC(=O)[C@@H](CCC(=O)O)NC(=O)CN(C)C1=O [compound 50]
> 10000 | CCC[C@@H]1NCCOc2ccccc2CCCNC(=O)CNC(=O)CN(C)C1=O [compound 51]
100 to 1000 | CCCC[C@H]1NC(=O)CN(C)C(=O)[C@H](CCC)NCCOc2ccccc2CCCNC1=O [compound 52]
> 10000 | CCC[C@@H]1NCCOc2ccccc2CCCNC(=O)[C@@H](CCCN)NC(=O)CN(C)C1=O [compound 53]
> 10000 | CCC[C@@H]1NCCOc2ccccc2CCCNC(=O)[C@@H](CO)NC(=O)CN(C)C1=O [compound 54]
1000 to 10000 | CCC[C@H]1NCCOc2ccccc2CCCNC(=O)[C@@H](Cc2ccccc2)NC(=O)CN(C)C1=O [compound 55]
> 10000 | CCC[C@H]1NCCOc2ccccc2CCCNC(=O)[C@H](Cc2ccccc2)NC(=O)CN(C)C1=O [compound 56]
100 to 1000 | CCC[C@@H]1NCCOc2ccccc2CCCNC(=O)[C@H](Cc2ccccc2)NC(=O)CN(C)C1=O [compound 57]
100 to 1000 | CCC[C@@H]1NCCOc2ccccc2CCCNC(=O)[C@@H](Cc2ccccc2)NC(=O)CNC1=O [compound 61]
1000 to 10000 | CCC[C@@H]1NCCOc2ccccc2CCCNC(=O)[C@@H](Cc2ccccc2)NC(=O)[C@H](CC(C)C)NC1=O [compound 62]
> 10000 | CCC[C@@H]1NCCOc2ccccc2CCCNC(=O)[C@@H](Cc2ccccc2)NC(=O)[C@@H](CC(C)C)NC1=O [compound 63]
> 10000 | CCC[C@@H]1NCCOc2ccccc2CCCNC(=O)[C@@H](Cc2ccccc2)NC(=O)[C@H](Cc2ccccc2)NC1=O [compound 64]
1000 to 10000 | CCC[C@@H]1NCCOc2ccccc2CCCNC(=O)[C@@H](Cc2ccccc2)NC(=O)[C@@H](Cc2ccccc2)NC1=O [compound 65]
100 to 1000 | CCC[C@@H]1NCCOc2ccccc2CCCNC(=O)[C@@H](Cc2ccccc2)NC(=O)C(C)(C)NC1=O [compound 66]
100 to 1000 | CCC[C@@H]1NCCOc2ccccc2CCCNC(=O)[C@@H](Cc2ccccc2)NC(=O)C2(CCCC2)NC1=O [compound 67]
1000 to 10000 | CCC[C@@H]1NCCOc2ccccc2CCCNC(=O)[C@@H](Cc2ccccc2)NC(=O)[C@H](CCCCN)NC1=O [compound 68]
> 10000 | CCC[C@@H]1NCCOc2ccccc2CCCNC(=O)[C@@H](Cc2ccccc2)NC(=O)[C@@H](CCCCN)NC1=O [compound 69]
> 10000 | CCC[C@@H]1NCCOc2ccccc2CCCNC(=O)[C@@H](Cc2ccccc2)NC(=O)[C@H](CCC(=O)O)NC1=O [compound 70]

Ki [nM] | Structure (SMILES)
> 10000 | CCC[C@@H]1NCCOc2ccccc2CCCNC(=O)[C@@H](Cc2ccccc2)NC(=O)[C@@H](CCC(=O)O)NC1=O [compound 71]
> 10000 | CN1CC(=O)N[C@H](Cc2ccccc2)C(=O)NCCCc2ccccc2OCCN[C@@H](CCC(=O)O)C1=O [compound 73]
> 10000 | CN1CC(=O)N[C@H](Cc2ccccc2)C(=O)NCCCc2ccccc2OCCN[C@@H](CO)C1=O [compound 76]
100 to 1000 | CCC[C@@H]1NCc2ccccc2Sc2ccccc2CNC(=O)[C@@H](Cc2ccccc2)NC(=O)CN(C)C1=O [compound 77]
> 10000 | CN1CC(=O)NC(Cc2ccccc2)C(=O)NCCCc2ccccc2OCCNCC1=O (stereo not shown) [compound 80]
> 10000 | CCCC1NCCOCCNC(=O)C(Cc2ccccc2)NC(=O)CN(C)C1=O (stereo not shown) [compound 81]
> 10000 | CCCC1NCC/C=C/CCNC(=O)C(Cc2ccccc2)NC(=O)CN(C)C1=O (stereo not shown) [compound 83]
> 10000 | CC(C)C[C@@H]1NCCOc2ccccc2CCCNC(=O)[C@H](C)NC(=O)C2(CCCC2)NC1=O [compound 87]
1000 to 10000 | CC(C)C[C@@H]1NCCOc2ccccc2CCCNC(=O)[C@H](Cc2ccc(O)cc2)NC(=O)C2(CCCC2)NC1=O [compound 88]
1000 to 10000 | CC(C)C[C@@H]1NCCOc2ccccc2CCCNC(=O)[C@H](Cc2c[nH]c3ccccc23)NC(=O)C2(CCCC2)NC1=O [compound 89]
1000 to 10000 | CC(C)C[C@@H]1NCCOc2ccccc2CCCNC(=O)[C@H](CCc2ccccc2)NC(=O)C2(CCCC2)NC1=O [compound 90]
> 10000 | CC(C)C[C@@H]1NCCOc2ccccc2CCCNC(=O)[C@H](CCCCN)NC(=O)C2(CCCC2)NC1=O [compound 91]
> 10000 | CC(C)C[C@@H]1NCCOc2ccccc2CCCNC(=O)[C@H](CCC(=O)O)NC(=O)C2(CCCC2)NC1=O [compound 92]
1000 to 10000 | CC(C)C[C@@H]1NCCOc2ccccc2CCCNC(=O)[C@H](Cc2ccccc2)NC(=O)C(C)(C)NC1=O [compound 95]
> 10000 | CC(C)C[C@H]1NCCOc2ccccc2CCCNC(=O)[C@H](Cc2ccccc2)NC(=O)C2(CCCC2)NC1=O [compound 96]
> 10000 | CC(C)C[C@H]1NCCOc2ccccc2CCCNC(=O)[C@@H](Cc2ccccc2)NC(=O)C2(CCCC2)NC1=O [compound 98]
100 to 1000 | C[C@@H]1NCCOc2ccccc2CCCNC(=O)[C@H](Cc2ccccc2)NC(=O)C2(CCCC2)NC1=O [compound 100]
100 to 1000 | CCCC[C@@H]1NCCOc2ccccc2CCCNC(=O)[C@H](Cc2ccccc2)NC(=O)C2(CCCC2)NC1=O [compound 101]
100 to 1000 | O=C1NC2(CCCC2)C(=O)N[C@@H](Cc2ccccc2)C(=O)NCCCc2ccccc2OCCN[C@H]1Cc1ccccc1 [compound 102]
> 10000 | NCCCC[C@@H]1NCCOc2ccccc2CCCNC(=O)[C@H](Cc2ccccc2)NC(=O)C2(CCCC2)NC1=O [compound 103]
> 10000 | O=C(O)CC[C@@H]1NCCOc2ccccc2CCCNC(=O)[C@H](Cc2ccccc2)NC(=O)C2(CCCC2)NC1=O [compound 104]
100 to 1000 | O=C1NC2(CCCC2)C(=O)N[C@@H](Cc2ccccc2)C(=O)NCCCc2ccccc2OCCN[C@H]1CO [compound 105]
1000 to 10000 | CC(C)C[C@@H]1NCc2ccccc2Sc2ccccc2CNC(=O)[C@H](Cc2ccccc2)NC(=O)C2(CCCC2)NC1=O [compound 108]

same assay, conditions: Table 3B; binding activity at the human ghrelin receptor; read-out: Ki

Ki [nM] | Structure (SMILES)
10 to 100 | CCC(C)[C@@H]1NCCOc2ccccc2/C=C/CNC(=O)[C@H](Cc2ccc(F)c(F)c2)NC(=O)C2(CCCC2)NC1=O (stereo partly shown) [331a]
10 to 100 | CCC(C)C1NCCOc2ccccc2C=CCNC(=O)C(Cc2cccc(C(F)(F)F)c2)NC(=O)C2(CCCC2)NC1=O (stereo not shown) [332a]
10 to 100 | CCC(C)[C@@H]1NCCCc2ccccc2/C=C/CNC(=O)[C@@H](Cc2ccc(F)cc2)NC(=O)[C@@H](C)N(C)C1=O (stereo partly shown) [353a]

same assay, conditions: Table 3D; read-out: Ki

Ki [nM] | Structure (SMILES)
> 10000 | CC(C)C[C@@H]1NCCOc2ccccc2/C=C/CNC(=O)[C@H](Cc2c[nH]cn2)NC(=O)C2(CCCC2)NC1=O [444a]

same assay, conditions: Table 3E; read-out: Ki

Ki [nM] | Structure (SMILES)
100 to 1000 | CCC[C@@H]1NCCOc2ccccc2CCCNC(=O)[C@@H](Cc2ccccc2)NC(=O)[C@H]2CCCN2C1=O [Compound 221]

same assay, conditions: [125I]-ghrelin displacement, GHS-R/HEK 293 membranes; class symbols; read-out: Binding Activity at the Human Ghrelin Receptor (Ki)

Ki [nM] | Structure (SMILES)
100 to 1000 | CCC[C@@H]1NCCOc2ccccc2CCCNC(=O)[C@@H](Cc2ccccc2)NC(=O)[C@H]2CCCN2C1=O [Compound 221]
